{
  "source": "paper PMC9882606",
  "about": "“Rationally designed inhibitors of the Musashi protein-RNA interaction by hotspot mimicry” (Research Square, 2023)",
  "key": {"[1]": {"target": "T1, MSI2 (Homo sapiens, UniProt Q96DH6)", "T1 sequence (Q96DH6 whole entry)": "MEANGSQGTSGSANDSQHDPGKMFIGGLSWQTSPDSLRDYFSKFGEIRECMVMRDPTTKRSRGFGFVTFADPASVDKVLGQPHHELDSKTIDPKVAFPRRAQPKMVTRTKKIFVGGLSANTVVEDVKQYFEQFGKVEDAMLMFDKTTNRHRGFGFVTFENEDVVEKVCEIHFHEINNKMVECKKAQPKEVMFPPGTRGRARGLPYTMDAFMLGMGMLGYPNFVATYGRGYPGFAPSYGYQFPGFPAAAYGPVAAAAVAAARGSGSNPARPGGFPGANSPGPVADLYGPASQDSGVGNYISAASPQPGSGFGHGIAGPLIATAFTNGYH", "assay": "Cellular thermal shift assay (CETSA) in K562 cells", "format": "cell-based", "conditions": "K562, 3 hours, 20 μM or 40 μM, heated to 49 °C", "text": "(§1) To explore the effect of these MSI2 inhibitors in a cancer-relevant cellular context, we selected two MSI2-dependent cancer cell lines: non-small cell lung cancer cell line PC9 and leukemia cell line K562 [73, 98–101]. Upon treatment of PC9 cells with Ro, R12–8–44–3, or negative control R12-neg, we found at multiple time points that cellular MSI2 protein levels were unchanged (Figure 6a). To confirm target engagement, we therefore adapted the cellular thermal shift assay (CETSA). […]\n(§2) Figure 6: Direct cellular engagement of MSI2 interaction by R12–44–3. […] MSI2 protein abundance was then quantified and normalized to untreated sample. One representative image is shown; quantification is presented as the average ± S.E.M. from 3 independent replicates. […] Cells were briefly incubated at temperatures between 40 °C to 67 °C, then centrifuged and the amount of MSI2 remaining in the soluble fraction was quantified by Western blotting. […] One representative image is shown; quantification is presented as the average ± S.E.M. from 3 independent replicates, normalized first to beta-actin and then to DMSO control. […] One representative image is shown; quantification is presented as the average ± S.E.M. from 3 independent replicates, normalized first to beta-actin and then to DMSO control. […]"}, "[2]": {"target": "T1, MSI2", "assay": "Cellular thermal shift assay (CETSA) in PC9 cells", "format": "cell-based", "parameters": "endogenous in cells; host or cells: PC9", "conditions": "PC9, 3 hours, 20 μM or 40 μM, heated to 49 °C", "text": "as §1, §2"}, "[3]": {"system": "PC9 cells", "assay": "CellTiter-Blue, combination with osimertinib, PC9", "format": "cell-based, human", "conditions": "PC9, 3-day treatment, osimertinib with 10 μM compound vs osimertinib alone", "text": "With respect to non-small cell lung cancer (NSCLC) specifically, overexpression of MSI2 has been identified as a mechanism underlying resistance to inhibitors of EGFR – and more importantly, depletion of MSI2 by RNA knockdown increased sensitivity to the third-generation EGFR inhibitor osimertinib both in vitro and in vivo [73, 74]. Despite lack of sensitivity to R12–8–44–3 alone, we therefore hypothesized that R12–8–44–3 would sensitize PC9 cells (an EGFR-mutant lung cancer cell line) to osimertinib."}, "[4]": {"system": "PC9 cells", "assay": "Clonogenic assay, PC9", "format": "cell-based, human", "conditions": "PC9, 10 μM, 7 days", "experimental": "(§3) Figure 7: Cellular characterization of MSI2 inhibition by R12–8–44–3. (A) Quantification of mRNA immunoprecipitation (RIP) results. Cells were treated with 10 μM of the indicated compounds for 8 hours. After immunoprecipitation with anti-MSI2, mRNA targets were quantified. The amount of each target mRNA in the pulldown was calculated relative to the input, and results from all targets were normalized to PTP4A1. Treating cells with R12–8–44–3 disrupted the interaction with all four cognate mRNAs (PTP4A, SMAD3, EGFR, and MSI2). Data are presented as the average ± S.E.M. from at least 3 independent replicates. […] Cells were treated with indicated compounds at two concentrations (5 μM and 20 μM) for 48 hours, then protein levels of relevant MSI2 targets were determined (EGFR, SMAD3, and MSI2). One representative image is shown; quantification is presented as the average ± S.E.M. from at least 3 independent replicates, normalized first to beta-actin and then to DMSO-treated cells. (C) Cell viability dose-response quantified by CellTiter-Blue after 3 days (left) and cell proliferation with 10μM of compounds quantified by clonogenic assay after 7 days (right). […] (D) Cell viability quantified by clonogenic assay of PC9 cell line after 7-day treatment with 2 nM osimertinib (osi alone), osimertinib with 10 μM R12–8–44–3, or osimertinib with 10 μM R12-neg. […]"}, "[5]": {"system": "PC9 cells", "assay": "CellTiter-Blue cell viability, PC9", "format": "cell-based, human", "conditions": "PC9, 3 days, dose-response", "experimental": "as §3"}, "[6]": {"target": "T2, MSI1 RRM1 (Homo sapiens, UniProt O43347)", "T2 sequence (O43347 20-110 limits assumed)": "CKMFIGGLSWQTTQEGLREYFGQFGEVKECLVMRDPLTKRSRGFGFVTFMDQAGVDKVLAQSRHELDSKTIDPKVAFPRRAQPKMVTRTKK", "assay": "Differential Scanning Fluorimetry (DSF)", "format": "binding", "conditions": "increasing compound dose", "text": "Out of concern that R12–7’s activity may be associated with compound aggregation, we elected to continue with optimization of R12–8 (Figure 2b).\nTo further characterize R12–8–44–3, we applied differential scanning fluorimetry (DSF) as an orthogonal secondary assay. […] While this could be a sign of apparent inhibition occurring through aggregation, there are also legitimate inhibitors that reduce their target protein’s melting temperature. An alternate explanation could simply be that MSI1’s folding landscape is not simply two-state, and that a partially-folded intermediate stabilized by R12–8–44–3 affects the unfolding transition."}},
  "data": [
    {"smiles": "Cc1cc(C(=O)OCc2nc(N)c3c(C)c(C)sc3n2)c(N)cc1F", "note": "[R12–8–44–3]", "values": [
      {"measurement": "soluble MSI2 after heating (CETSA)", "setting": "[1]", "result": "confers protection against thermal-induced aggregation"},
      {"measurement": "soluble MSI2 after heating (CETSA)", "setting": "[2]", "result": "confers protection against thermal-induced aggregation"},
      {"measurement": "cell viability (CellTiter-Blue) in combination with osimertinib", "setting": "[3]", "result": "small but statistically significant decrease in cell viability"},
      {"measurement": "cell proliferation (clonogenic assay)", "setting": "[4]", "result": "no effect on cell growth/survival"},
      {"measurement": "cell viability (CellTiter-Blue)", "setting": "[5]", "result": "no effect on cell growth/survival"},
      {"measurement": "change of the protein's melting temperature", "setting": "[6]", "result": "monotonically decreased MSI1’s melting temperature"}
    ]}
  ]
}
